Source: PubChem BioAssay AID651717 (Broad Institute, 2012)

Tested on: mESC Bmi1-luciferase reporter, firefly/renilla ratio, 24 h
Assay: compounds raising Bmi1 reporter signal – mouse embryonic stem cells, luciferase, cherry-pick, esBAF inhibitor project, dose response (AID 651717);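 further: luciferase knocked into Bmi1 locus with EF-1a renilla as cell number control; rising ratio signals esBAF inhibition which derepresses Bmi1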

| SMILES | AC40 [µM] |
| --- | --- |
| O=C(Nc1ccncc1)c1ccc2ncsc2c1 | 22.8 |
| Cc1ccc(-c2csc(NC(=O)c3ccno3)n2)cc1 | 8.99 |
| Nc1cc2c3ccccc3ccc2c2ccccc12 | 2.47 |
| C=CCNc1oc(-c2ccc(OC)cc2)nc1C#N | 3.54 |
| Cc1ccc(NC(=O)Nc2ccc(F)cc2)cc1Cl | 3.4 |
| Cc1cc(C)c2c(CN(C)Cc3ccccc3)cc(=O)oc2c1 | 4.9 |
| Cc1ccc(O)c(CNc2ccccn2)c1 | 16.7 |
| COc1ccccc1CNC(=O)C[C@@H]1CC[C@@H]2[C@H](COC[C@H](O)CN2C(=O)Nc2ccc(Cl)cc2)O1 | 1.36 |
| CN(CC(=O)Nc1cccc(F)c1)C(=O)c1sc2ccccc2c1Cl | 23.3 |
| Cc1ccnc(NCc2cc(C)ccc2O)c1 | 12.8 |
| Nc1nc(SCc2ccccc2)cc(SCc2ccccc2)n1 | 4.44 |
| COc1cccc(NC(=O)N2CCc3nc(Nc4ccc(C(C)C)cc4)ncc3C2)c1 | 29.9 |
| CN(C(=O)c1ccc2c(Cl)c3c(nc2c1)CCC3)c1ccccc1 | 6.63 |
| CC1CCc2sc(C(=O)NC3CCCCC3)cc2C1 (stereo unspecified) | 1.08 |
| COc1cccc(NC(=O)N2CCN(c3cccc(C)c3C)CC2)c1 | 4.88 |
| O=C(Nc1ccc2ccccc2c1)c1cccc2ccccc12 | 0.829 |
| CCSc1ccc(/C(N)=N/OC(=O)c2cccs2)cn1 | 8.66 |
| O=C(c1ccncc1)N(c1ccc(N2CCOCC2)cc1)C(c1ccccc1)c1nc2ccccc2[nH]1 (stereo unspecified) | 1.01 |
| Cc1ccc2sc(NC(=O)C3CC3)nc2c1C | 6.72 |
| CC(O)(c1ccccc1)c1nc(-c2cccc(C(=O)O)c2)cs1 (stereo unspecified) | 4.13 |
| Cc1cc(C)c(N=Cc2c(O)c3ccccc3oc2=O)c(C)c1 | 7.95 |
| OC(c1ccccc1)c1nc(-c2ccc3c(c2)OCO3)cs1 (stereo unspecified) | 3.37 |

| SMILES | AC40 [µM] |
| --- | --- |
| O=C(NNC(=O)c1cccc2ccccc12)c1ccc2c(c1)OCO2 | 17.8 |
| CC(C)C(=O)Nc1ccc(C(=O)c2ccccc2)cc1 | 8.18 |
| Cc1cc(C(=O)Cn2cnc3ccccc3c2=O)c(C)n1C1CC1 | 2.92 |
| O=C(NCCO)c1cccc(-c2cnc3c(Nc4cccc(OC(F)(F)C(F)F)c4)nccn23)c1 | 4.46 |
| CCCOc1ccc(NC(=O)C2CC(=O)N/C(=N/N=C(C)/C=C/c3ccc(N(C)C)cc3)S2)cc1 (stereo unspecified) | 6 |
| Cc1c(C(=O)N2CCCc3ccccc32)sc2nc(-c3ccccc3)cn12 | 12.5 |
| COc1ccc(-c2cc([C@H]3[C@H]4C=CC[C@@H](C)[C@@H]4C(=O)N3Cc3ccccc3)ccc2F)cc1OC | 17.8 |
| O=C(COc1ccc(/C=N/NC(=O)c2cc3ccccc3o2)cc1Br)Nc1ccccc1 | 4.24 |
| CCCCNC(=O)CSc1nc2ccc(N3CCOCC3)cc2c(=O)n1Cc1ccc(OC)cc1 | 11 |
| O=C1N=C(N2CCCCC2)S/C1=C\c1ccccc1F | 2.67 |
| CO[C@H]1CN(C)C(=O)c2cc(NC(=O)NC(C)C)ccc2OC[C@H](C)N(Cc2ccc(-c3ccccn3)cc2)C[C@@H]1C | 0.871 |
| COc1ccc(C(=O)CNc2cccc(F)c2)cc1 | 16.4 |
| COc1ccccc1C=Cc1ccnc2ccccc12 | 7.65 |
| CC(C)(C)c1ccc(C(=O)c2cn[nH]c2-c2ccccc2O)cc1 | 7.24 |
| Cc1cccc(NC(=O)CCCc2ccccc2)c1 | 9.57 |
| Cc1cccc(-c2noc(Cc3ccc(Cl)cc3)n2)c1 | 5.96 |
| CC(C)c1ccc(CNc2ncc(Br)cn2)cc1 | 4.25 |
| COc1ccc(C2CC2/C(=N/OC(=O)c2cccs2)c2ccccc2)cc1 (stereo unspecified) | 2.9 |
| CO[C@@H]1CN(C)C(=O)c2cc(NC(=O)c3nc4ccccc4s3)ccc2OC[C@@H](C)N(Cc2cccnc2)C[C@H]1C | 19.8 |
| Cc1ccc(C2/C(=C(/O)c3cnn(-c4ccccc4)c3C)C(=O)C(=O)N2CCN2CCOCC2)o1 (stereo unspecified) | 8.69 |
| CC(=O)c1ccc(OCc2ccccc2)c(C)c1O | 9.35 |
| Cc1cc(NC(=O)CC2CCCC2)ccc1Br | 11.8 |

| SMILES | AC40 [µM] |
| --- | --- |
| O=C(COC(=O)c1cccc(S(=O)(=O)N2CCOCC2)c1)Nc1nc(-c2ccccc2Cl)cs1 | 16.2 |
| O=C(Cc1ccccc1)Nc1ccc2c(c1)OC1(CCCC1)O2 | 3.73 |
| CSc1cccc(NC(=O)N2CCc3ccc(NC(=O)c4ccccn4)cc3C2)c1 | 4.23 |
| Cc1c(C(=O)NCc2cccnc2)sc2nc(-c3ccc(F)cc3)cn12 | 12.2 |
| O=C(Nc1cccc2ccccc12)c1cnccn1 | 6.43 |
| COc1ccc(NC(=O)c2cc(C3CC3)on2)c(OC)c1 | 11.8 |
| CCSc1nnc(Nc2ccccc2)s1 | 11.1 |
| O=C(N/N=C/c1ccc(Cl)cc1)Nc1ccccc1 | 5.34 |
| CO[C@H]1CN(C)C(=O)c2cc(NC(=O)Nc3ccc4c(c3)OCO4)ccc2OC[C@@H](C)NC[C@H]1C | 8.26 |
| CC(C)C1C(=O)N(Cc2cn(CCC3OCCCO3)nn2)CCS(=O)(=O)N1Cc1ccc(-c2ccc(Cl)nc2)cc1 (stereo unspecified) | 17.8 |
| c1ccc2nc3c(ccc4ccccc43)cc2c1 | 0.939 |
| O=C(CN1CCCCC1)Nc1nc(-c2ccccc2)cs1 | 11.5 |
| Cc1ccc(NC(=O)NC(=O)N(c2ccccc2)S(C)(=O)=O)cc1 | 7.14 |
| C=CCn1c(O)c(C=Nc2ccccc2)sc1=S | 5.13 |
| CCCn1cnc2cc(NCc3ccccc3O)ccc21 | 17.2 |
| COc1ccc2oc3cc(Cl)ccc3c(=O)c2c1 | 2.85 |
| COc1ccc(-c2cc3cc(OC)c(OC)cc3cn2)cc1 | 6.22 |
| Cc1sc2nc(-c3cccnc3)nc(Cl)c2c1-c1ccccc1 | 19.5 |
| O=C(O)c1ccc(N/N=C/c2cccc3nccnc23)cc1 | 4.04 |
| CCCC1(C)Nc2ccccc2-c2nc3ccccc3n21 (stereo unspecified) | 11.3 |
| Cc1ccc(C(=O)Nc2cccc(O)c2)cc1S(=O)(=O)N1CCCCCC1 | 14.5 |
| CC(=O)Oc1ccc(-c2cc3ccccc3oc2=O)cc1 | 3.22 |

| SMILES | AC40 [µM] |
| --- | --- |
| COc1ccc(OCc2cc(C(=O)N(C)C(C)c3ccon3)no2)c(Cl)c1 (stereo unspecified) | 23.4 |
| O=C(Nc1ccc(Cl)cc1Cl)c1csc(-c2cccnc2)n1 | 6.82 |
| CN(c1cccc(NC(=O)c2ccc(C(C)(C)C)cc2)c1)S(C)(=O)=O | 2.97 |
| COc1cccc2cc(C(=O)N3CCc4ccccc4C3)c(=O)oc12 | 26.9 |
| O=C1CCN(Cc2ccccc2)CCN1CCSc1ccccc1 | 3.08 |
| N/C(=N\OC(=O)C1CCCCC1)c1ccc(Cl)cc1 | 6.24 |
| Cc1ccc(CNC(=O)C2CCC(=O)N(CCc3ccc(Cl)cc3)C2)cc1 (stereo unspecified) | 5.36 |
| O=C(NC1CCCCC1)c1cc(-c2cccc(Cl)c2)on1 | 6.04 |
| COc1ccc(NC(=O)c2ccc3ccccc3c2OC)cc1 | 2.56 |
| CCCCN(C(=O)CSc1nnc(Nc2ccc(C)c(C)c2)s1)c1c(N)n(Cc2ccccc2)c(=O)[nH]c1=O | 12.4 |
| O=C(Cc1ccccc1F)Nc1nc(-c2ccc(F)c(F)c2)cs1 | 9.65 |
| O=C1CC(/C=C/c2ccncc2)=Nc2ccccc2N1 | 6.57 |
| COc1ccc(/C=N/Nc2nc(C)nc(N)n2)cc1 | 15.5 |
| CN(C)c1ccc(-c2csc(C(O)c3ccc(F)cc3)n2)cc1 (stereo unspecified) | 1.63 |
| C=CCn1c(=O)c(C(=O)Nc2ccc(C)cc2)c(O)c2ccccc21 | 13.1 |
| COc1nc(Nc2ccc(C(C)C)cc2)nc(OC)n1 | 10.8 |
| N#CCc1nc(CSc2nc3ccccc3o2)cs1 | 12.3 |
| CCCCNc1ccc2c(c1)C1CC2CCN1C(=O)OCc1ccccc1 (stereo unspecified) | 4.73 |
| Clc1ccc(-c2csc(N3CCSCC3)n2)cc1 | 5.65 |
| C=CCNc1nc(Cl)nc(Nc2ccccc2)n1 | 0.936 |
